From US20220193029A1, “BRYOSTATIN COMPOUNDS FOR ENHANCEMENT OF IMMUNOTHERAPY” (priority 2019, published 2022)

Assays:
[1] = system: CD22 surface expression in JB cells; assay: CD22 surface expression assay, AIDS-NHL cell line JB; conditions: 1 nM or 10 nM, 48 hours
Protocol: (§10) AIDS-NHL cell lines were incubated in IF10 medium, consisting of IMDM medium (Life technologies) containing 10% fetal bovine serum (FBS, Omega Scientific), 100 units/mL of penicillin, and 100 μg/ml of streptomycin (Invitrogen). Cells were incubated at 37° C. in 5% CO2.
(§11) Cells were exposed to compound for the either 24 or 48 h before staining and flow cytometric analysis of receptor levels.
(§12) Cells in each well were washed with phosphate buffered saline (PBS) containing 2% FBS, then cells were centrifuged for 9 min at 233 xg and resuspended in 50 μL of a 1:1 dilution of phosphate buffered saline (PBS): Human AB serum (Sigma). […] Stained samples were stored at 4° C. Flow cytometry samples were analyzed using a FACSCelesta (BD Biosciences) flow cytometer and data were analyzed using FlowJo software (version 10).
(§13) Panel C: JB cells were incubated with 1 nM (left hand bars) or 10 nM (right hand bars) of compound for 48 hours. CD22 surface expression was then assayed by flow cytometry (n=6 biological replicates; data presented as mean values ±SE). Panel D: 2F7 cells were incubated with 1 nM (left hand bars) or 10 nM (right hand bars) of compound for 48 hours. CD22 surface expression was then assayed by flow cytometry (n=6 biological replicates; data presented as mean values ±SE).

PKCα = target: T1, PKCα (Homo sapiens, UniProt P17252); assay: cell-free competitive PKC binding assay with [3H]-phorbol dibutyrate; conditions: competition with [3H]-PDBu, recombinant human PKC isoform
T1 construct: purchased Invitrogen
Protocol: (§1) Because a prerequisite for PKC pathway involvement is binding to PKC, compounds were initially evaluated for PKC affinity in a cell-free competitive binding assay with tritiated phorbol dibutyrate ([^3H]-PDBu). Assays were performed with representative members of both the conventional (PKCα) and novel (PKCδ) PKC families. Subsequently, compounds were assayed for PKC activation in living cells using an isoform translocation assay.
(§2) To a 50 mL polypropylene tube was added Tris-HCl (pH 7.4, 1 M, 1 mL), KCl (1 M, 2 mL), CaCl2) (0.1 M, 30 μL), and bovine serum albumin (BSA, 40 mg, Sigma-Aldrich). This mixture was diluted to 20 mL with deionized H2O and mixed gently. The buffer was stored on ice until use.
(§3) For every two assays, 3.5 mg phosphatidylserine (Avanti Polar Lipids, porcine, 25 mg/mL CHCl3 solution) was concentrated by removing chloroform under a stream of nitrogen followed by reduced pressure. The solid PS was suspended as vesicles in freshly prepared PKC binding assay buffer (3.5 mL) by sonicating six times for 30 sec, with a 30 sec rest between sonications (Branson Sonifier 250, power=2, 50% duty cycle). The resulting milky cloudy mixture (1 mg/mL) was stored on ice until use.
(§4) Assay PKC was prepared by dissolving a 4 μg aliquot of the indicated recombinant human PKC isoform (Invitrogen) into 11.6 mL of PKC binding assay buffer (this amount is sufficient for two assays). The diluted PKC was stored on ice for immediate use.
(§5) ^3H-PDBu (American Radiolabeled Chemicals, Inc.; 1 mCi/mL acetone solution; specific activity: 20 Ci/mmol) was diluted […] with DMSO. The resulting 500 nM stock solution was further diluted with DMSO to 30 nM.
(§6) Compound dilutions were prepared by serially diluting from a chosen “high” concentration by factors of 3 or 4.
(§7) To a polypropylene tube was added 3.3 mL of 1 mg/mL PS vesicles solution, 11 mL of PKC isoform solution, and 1.1 mL of 30 nM ^3H-PDBu solution were added. The resulting solution was vortexed to mix and stored on ice.
(§8) Materials: • Glass-fiber filters (Whatman GF/B) were prepared by soaking them in a solution of aqueous polyethyleneimine (10% by vol, 18 mL) in deionized water (600 mL) for ≥1 h. • 500 mL “rinsing buffer” of 20 mM Tris, pH 7.4 was cooled on ice for the duration of the incubation period and for the remainder of the assay.
(§9) Triplicate data points were obtained for each analog concentration. For each data point, 280 μL of “Master Mix” Solution and 20 μL of analog compound at a specified concentration were added to a polypropylene tube. […] Maximal ^3H-PDBu binding was assessed in triplicate by substitution of the analog compound with 20 μL DMSO. The solutions were vortexed to mix, incubated at 37° C. for 10 min, and incubated on ice for at least 30 min prior to filtration. Using a Brandel Harvester, the assay contents from each polypropylene tube were vacuum-filtered through polyethylenimine-soaked filters, washing with rinsing buffer (3×) and drying first under vacuum for 5 min and then under ambient conditions for ≥2 h. The resulting filters had circular perforations for each data point, which were removed with forceps and placed in a scintillation vial. Scintillation vials were filled with Bio-Safe II scintillation fluid (5 mL) and measured for radioactivity using a Beckman LS 6000SC scintillation counter. Counts per minute (cpm) were averaged for each triplicate dilution. The data were plotted—cpm vs. log(concentration)—using Prism® by GraphPad Software and an IC50 was determined using that program's built-in one-site competition least squares regression function. Ki values were calculated using the equation: Ki=IC50/(1+([3H−PDBu]/Kd)). The Kd of ^3H-PDBu for PKC isoforms was measured separately via saturation binding experiments under identical conditions.

[2] = system: CD22 surface expression in NALM6 cells; assay: CD22 surface expression assay by flow cytometry; assay type: cell-based, human
Protocol: Cell cultures were maintained between 4×10^5 and 3×10^6 cells/mL according to vendor instructions.
Cell suspension from a confluent T75 flask (Fisher) was transferred to a 15 mL falcon tube and centrifuged at 1100 rpm for 7 minutes. […] Cells were counted using a Countess II Automated Cell Counter (Fisher). […] 199 μL of this stock was added to 24 wells (enough for triplicate measurements for 8 different experimental conditions) in a 96-well plate. […] 1 μL of DMSO or the appropriate stock solution of compound in DMSO was added to each well. Cells were incubated for 24 hours, at which point the cell suspensions were transferred to 1.5 mL Eppendorf tubes and diluted with 1.0 mL of PBS (Hyclone, without Ca^2+ or Mg^2+). Samples were centrifuged at 2000 rpm for 5 min at RT. […] Cells were sub-cultured between 2×10^5 and 3×10^6 cells/mL in 24-well plates for an additional 24 hrs-7 days, at which point CD22 surface expression was assayed by flow cytometry.
Cells from one well were counted using a Countess II Automated Cell Counter (Fisher). ˜200,000-300,000 cells from each well were added to 1.5 mL Eppendorf tubes containing PBS (final volume ˜1.2 mL). The cell suspensions were centrifuged at 1500 rpm for 7 minutes at 4° C. The supernatant was aspirated, and the cell pellet was resuspended in 99 μL of pre-chilled FACS buffer (0.5% w/v BSA in PBS). […] Samples were then diluted with an additional 1.0 mL of FACS buffer and centrifuged at 1500 rpm for 7 minutes at 4° C. […] Cells were stained with DAPI and CD22 surface expression was analyzed using the FACScan Analyzer at the Stanford Shared FACS Facility. Data analysis was performed using FlowJo and Microsoft Excel.

[3] = system: CD22 surface expression in 2F7 cells; assay: CD22 surface expression assay, AIDS-NHL cell line 2F7; conditions: 1 nM or 10 nM, 48 hours
Protocol: as §10, §11, §12, §13

PKC = assay: cell-free PKC binding assay, isoform not given; set-up: species or system human
Protocol: as §1, §4, §9

NALM6 tumor cells = assay: NSG mice with NALM6 tumor cells treated with CD22 CAR T cells plus bryostatin 1; conditions: NALM6 tumor cells day 0, CD22 CAR day 3, bryostatin 1 three times weekly for 2 weeks
From the text: Mice were imaged using IVIS™ technology and luciferin-D IP injections.

PKCδ-GFP fusion protein = assay: PKCδ-GFP translocation assay in living CHO-k1 cells (confocal microscopy); assay type: cell-based, Chinese hamster
Protocol: as §1
Chinese hamster ovary factor K1 (CHO-k1, ATCC) cells were cultured in F-12 Kaighn's media (Hyclone, 10% fetal bovine serum, 1% penicillin/streptomycin added, referred to as F-12+/+ below) at 37° C. in an incubator (5% CO2). Cell cultures were maintained by splitting cells 1:3 when they reached ˜75-100% confluence (every 2-3 days) as follows:
1 mL of the cell suspension was then added to 9 mL of fresh F-12+/+ and the sample was sub-cultured until reaching confluence (˜2-3 days).
Cells were counted using a Countess II Automated Cell Counter (Fisher). The cell suspension was diluted to 240,000 cells/mL with fresh F-12+/+ and 2.5 mL of this diluted stock was added to one well in a 6-well plate. The cells were then cultured for 24 hours.
F-12+/+ was aspirated and cells were washed with F-12−/−. 2 mL of fresh F-12−/− was then added to each well, taking care not to disturb adherent cells. For each well of CHO-k1 cells, 12.5 μL Lipofectamine 2000 reagent (Invitrogen) was added to 250 μL Opti-MEM reduced serum media (Invitrogen) in a polypropylene tube and incubated for 20 minutes at RT. Meanwhile, for each well, 4 μg of PKCδ-GFP pDNA and 250 μL Opti-MEM reduced serum media was added to a separate polypropylene tube. 250 μL of the Lipofectamine 2000 suspension was added to the DNA suspension and the solution incubated for 30 minutes at RT. 500 μL of the Lipofectamine/DNA suspension was added to the respective wells of the 6-well plate. The cells were then incubated at 37° C. (5% CO2) for ˜24 hrs.
F-12+/+ was aspirated and cells were washed with F-12−/−. 2.4 mL of fresh F-12−/− was then added to each well, taking care not to disturb adherent cells. A 4 μg aliquot of PKCδ-GFP pDNA was added to PBS (pH 5.5, final volume 100 μL). 5.6 μL of DA 13:11 (2 mM stock in DMSO) was then added to the DNA solution, and the mixture was gently mixed (by flicking) for 20 seconds, at which point it was added directly to the respective wells of the 6-well plate. The cells were then incubated at 37° C. (5% C02) for ˜24 hrs.
After incubation, the media was aspirated and cells were washed with PBS (2.0 mL) and trypsinized (500 μL). The cell suspension was then diluted with 2.0 mL F-12+/+. 200 μL aliquots were added to 3 wells of a Lab-Tek II 4-well chambered coverglass slide (Fisher), producing 4 slides in total, each with three wells of cells. The cell suspension was directly diluted with 600 μL of additional F-12+/+. The resulting samples were incubated for ˜24 hrs. prior to imaging.
Fluorescent images were obtained using a Leica SP8 White Light Confocal microscope and the Leica AF software package. Prior to analysis, media was aspirated and 800 μL of PBS (Hyclone, without Ca^2+ or Mg^2+) supplemented with glucose (10 mM) was added to each well of the chambered coverglass slide. Bryostatin and bryostatin analogs were diluted to the appropriate concentration in 200 μL of 10 mM glucose in PBS. Cells were located for imaging and data was recorded for three wells in parallel, imaging at predetermined positions in each well using adaptive focus control. Cells were imaged at 30 second intervals following the addition of compound (set to t=0) for 20-40 minutes. Data were recorded at room temperature. Images were exported as .lif files and fluorescence intensity was analyzed using FIJI (NIH) software.

PKCδ = target: T2, PKCδ (Homo sapiens, UniProt Q05655); assay: cell-free competitive PKC binding assay with [3H]-phorbol dibutyrate; conditions: competition with [3H]-PDBu, recombinant human PKC isoform
T2 construct: purchased Invitrogen
Protocol: as §1, §2, §3, §4, §5, §6, §7, §8
Triplicate data points were obtained for each analog concentration. For each data point, 280 μL of “Master Mix” Solution and 20 μL of analog compound at a specified concentration were added to a polypropylene tube. […] Maximal ^3H-PDBu binding was assessed in triplicate by substitution of the analog compound with 20 μL DMSO. The solutions were vortexed to mix, incubated at 37° C. for 10 min, and incubated on ice for at least 30 min prior to filtration. Using a Brandel Harvester, the assay contents from each polypropylene tube were vacuum-filtered through polyethylenimine-soaked filters, washing with rinsing buffer (3×) and drying first under vacuum for 5 min and then under ambient conditions for ≥2 h. The resulting filters had circular perforations for each data point, which were removed with forceps and placed in a scintillation vial. Scintillation vials were filled with Bio-Safe II scintillation fluid (5 mL) and measured for radioactivity using a Beckman LS 6000SC scintillation counter. Counts per minute (cpm) were averaged for each triplicate dilution. The data were plotted—cpm vs. log(concentration)—using Prism® by GraphPad Software and an IC50 was determined using that program's built-in one-site competition least squares regression function. […] The Kd of ^3H-PDBu for PKC isoforms was measured separately via saturation binding experiments under identical conditions.

T2 sequence (Q05655 whole entry, canonical isoform): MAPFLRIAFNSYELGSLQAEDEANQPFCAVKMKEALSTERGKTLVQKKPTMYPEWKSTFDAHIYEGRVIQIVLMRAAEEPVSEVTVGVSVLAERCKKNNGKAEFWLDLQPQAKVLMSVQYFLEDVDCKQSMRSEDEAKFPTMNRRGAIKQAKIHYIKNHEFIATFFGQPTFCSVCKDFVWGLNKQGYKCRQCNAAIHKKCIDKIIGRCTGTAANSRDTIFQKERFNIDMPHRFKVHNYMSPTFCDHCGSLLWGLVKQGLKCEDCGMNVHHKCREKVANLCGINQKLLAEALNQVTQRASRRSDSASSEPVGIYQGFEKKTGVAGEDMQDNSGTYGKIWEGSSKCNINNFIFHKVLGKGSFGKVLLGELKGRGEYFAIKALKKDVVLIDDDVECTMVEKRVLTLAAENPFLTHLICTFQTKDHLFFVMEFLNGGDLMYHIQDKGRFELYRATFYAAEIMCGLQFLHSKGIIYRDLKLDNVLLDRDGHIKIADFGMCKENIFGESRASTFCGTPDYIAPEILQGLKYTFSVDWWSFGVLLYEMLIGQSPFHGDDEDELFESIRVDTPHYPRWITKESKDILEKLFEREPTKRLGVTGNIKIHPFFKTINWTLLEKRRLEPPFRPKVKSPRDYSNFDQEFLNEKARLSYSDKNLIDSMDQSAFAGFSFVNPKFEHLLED

SMILES	upregulated CD22 surface expression [1] [fold]	Ki (PKCα) [nM]	time for which increased CD22 surface expression was sustained following treatment ([2]; 10 nM for 24 hours, then washed out and sub-cultured)	increase in CD22 surface density ([2]; NALM6 cells incubated 24 hours, flow cytometry) [fold]	upregulated CD22 surface expression [3] [fold]	binding affinity to PKC, in words (PKC)	durability of response to CD22 CAR T cell treatment (NALM6 tumor cells)	activity in the PKC translocation assay at 200 nM (PKCδ-GFP fusion protein; 200 nM)	cytosolic PKC translocated to the plasma membrane (PKCδ-GFP fusion protein; 1000 nM, at about 5 minutes) [%]	concentration* (minimum effective concentration required to induce translocation of PKC-GFP to the membrane) (PKCδ-GFP fusion protein; CHO-k1 cells) [nM]	% Translocation (PKCδ-GFP fusion protein; maximum translocation of PKCδ-GFP to the plasma membrane at the concentration printed in the same cell, CHO-k1 cells, SUW212: only brief translocation observed) [%]	Ki (PKCδ) [nM]
CCC/C=C/C=C/C(=O)O[C@H]1/C(=C/C(=O)OC)C[C@H]2C[C@H]([C@@H](C)O)OC(=O)C[C@H](O)C[C@@H]3C[C@H](OC(C)=O)C(C)(C)[C@](O)(C[C@@H]4C/C(=C/C(=O)OC)C[C@H](/C=C/C(C)(C)[C@]1(O)O2)O4)O3 [Bryostatin 1, reference compound]	~2	0.8	up to 7 days	> 2	~2	single digit nanomolar binder	improves durability of response					
CCCC=CC=CC(=O)OC1C(=CC(=O)OC)CC2CC(C(C)O)OC(=O)CC(O)CC3CC(OC(C)=O)C(C)(C)C(O)(CC4CC(=CC(=O)OC)CC(C=CC(C)(C)C1(O)O2)O4)O3 (centres unmarked) [SUW201]	~2	0.54			~2							
CCCC=CC=CC(=O)OC1C(=CC(=O)OC)CC2CC(C(C)O)OC(=O)CC(O)CC3CC(OC(C)=O)C(C)(C)C(O)(CC4CC(OC(=O)CCc5c[nH]c6ccccc56)CC(C=CC(C)(C)C1(O)O2)O4)O3 (centres unmarked) [SUW210]		5.6				high affinity PKC binders		inactive	~70	1000	75	7.3
